Measurements reported in US20070021508A1, “Method for treatment of Helicobacter pylori infection and/or an associated disease” (priority 2005, published 2007).
Values after ≈ are worked out from the molar mass of the structure shown.

Key:
HP 238 [1] = assay: Disc diffusion assay against HP for various compounds, HP 238; format: cell-based, Helicobacter pylori; details: for Disc diffusion diameter: 40 μl on 8 mm disc, 48 hours; for anti-HP activity compared to other compounds: HP 238 lawn, disc diffusion
[2] = ornithine transcarbamylase-deficient patients, median dose 352 mg/kg/day, 26-month follow-up; cited from earlier work
HP 43504 [3] = assay: Disc diffusion assay against HP for various compounds, HP 43504; format: cell-based, Helicobacter pylori; details: for Disc diffusion diameter: 40 μl on 8 mm disc, 48 hours; for anti-HP activity compared to other compounds: HP 43504 lawn, disc diffusion
HP 238 [4] = assay: Disc diffusion assay against HP for PB plus various antibiotics, HP 238; format: cell-based, Helicobacter pylori; details: HP 238, CDC agar, 8 mm disc, 48 hours; AMO 0.015 μg/20 μl, MTZ 5 μg/20 μl, TC 0.5 μg/20 μl, plus 20 μl water or 4-PB 2 mg/20 μl
Procedure: HP 43504 and HP 2378 were further used for testing PB in combination with various antibiotics in disc diffusion assays. After 2 days' pre-culture in a microaerophilic condition (O2 5%, CO2 10%, N2 85%) at 37° C., HP was suspended in a Brucella broth containing 5% sucrose to adjust its clone density at 1×10^8 CFU/ml. Then 100 μl of the bacterial suspension was inoculated onto a CDC agar plate. […] The agar plates were later transferred to a microaerobic jar to incubate at 37° C. The diameter of each inhibition zone (clear zone size) in the bacterial lawn was measured 48 hours later. […]

[5] = tested on: H. pylori ATCC43504 (HP 43504); assay: Minimum inhibitory concentration (MIC) against HP 43504; format: cell-based; details: Helicobacter pylori
Procedure: (§1) The HP strains used in the present studies are H. pylori ATCC43504 (HP 43504) and HP 238. HP 238 was isolated from a patient with MALToma in National Cheng Kung University Hospital, Tainan, Taiwan, and used as an antibiotic sensitive control. These strains were cultured under a microaerophilic condition (O2 5%, CO2 10%, N2 85%) in a 37° C. chamber.

HP 43504 [6] = assay: Disc diffusion assay against HP for PB plus various antibiotics, HP 43504; format: cell-based, Helicobacter pylori; details: HP 43504, CDC agar, 8 mm disc, 48 hours; AMO 0.015 μg/20 μl, MTZ 5 μg/20 μl, TC 0.5 μg/20 μl, plus 20 μl water or 4-PB 2 mg/20 μl
Procedure: HP 43504 and […] were further used for testing PB in combination with various antibiotics in disc diffusion assays. After 2 days' pre-culture in a microaerophilic condition (O2 5%, CO2 10%, N2 85%) at 37° C., HP was suspended in a Brucella broth containing 5% sucrose to adjust its clone density at 1×10^8 CFU/ml. Then 100 μl of the bacterial suspension was inoculated onto a CDC agar plate. […] The agar plates were later transferred to a microaerobic jar to incubate at 37° C. The diameter of each inhibition zone (clear zone size) in the bacterial lawn was measured 48 hours later. The tested combinations used in this experiment comprised 4-PB (50 mg/ml) with amoxicillin (AMO), metronidazole (MTZ) or tetracycline (TC).

HP 238 [7] = assay: Minimum inhibitory concentration (MIC) against HP 238; format: cell-based; details: Helicobacter pylori; against clinically isolated strain HP 238
Procedure: as §1

[8] = HP 238, Brucella agar, 50 mg/ml
[9] = HP 238, Brucella agar, 100 mg/ml
[10] = HP 43504, Brucella agar, 50 mg/ml
[11] = HP 43504, Brucella agar, 100 mg/ml
[12] = HP 238, 100 mg/ml, no clear zone outside the paper disc
[13] = HP 43504, 100 mg/ml, no clear zone outside the paper disc

## 4-phenylbutyrate [4-PB]
HP 238 [1]; HP 238, Brucella agar, 5 mg/ml
  Disc diffusion diameter: 8 mm
HP 238 [1]; HP 238, Brucella agar, 25 mg/ml
  Disc diffusion diameter: 26 mm
HP 238 [1]; [8]
  Disc diffusion diameter: 40 mm
HP 238 [1]; [9]
  Disc diffusion diameter: 64 mm
HP 238 [1]; HP 238, CDC agar, 5 mg/ml
  Disc diffusion diameter: 8 mm
HP 238 [1]; HP 238, CDC agar, 25 mg/ml
  Disc diffusion diameter: 9 mm
HP 238 [1]; HP 238, CDC agar, 50 mg/ml
  Disc diffusion diameter: 23 mm
HP 238 [1]
  anti-HP activity compared to other compounds: much better anti-HP activity
[2]
  side effects related to therapy: neither hyperammonemic episodes requiring hospitalization nor side effects related to therapy occurred
HP 43504 [3]; HP 43504, Brucella agar, 5 mg/ml
  Disc diffusion diameter: 8 mm
HP 43504 [3]; HP 43504, Brucella agar, 25 mg/ml
  Disc diffusion diameter: 8 mm
HP 43504 [3]; [10]
  Disc diffusion diameter: 33 mm
HP 43504 [3]; [11]
  Disc diffusion diameter: 45 mm
HP 43504 [3]; HP 43504, CDC agar, 5 mg/ml
  Disc diffusion diameter: 8 mm
HP 43504 [3]; HP 43504, CDC agar, 25 mg/ml
  Disc diffusion diameter: 8 mm
HP 43504 [3]; HP 43504, CDC agar, 50 mg/ml
  Disc diffusion diameter: 17 mm
HP 43504 [3]
  anti-HP activity compared to other compounds: much better anti-HP activity

## NCCC(N)C(=O)O (centres unmarked) [2,4-DAB, 2,4-diaminobutyric acid]
HP 238 [1]; [12]
  anti-HP activity: no obvious anti-HP activity
HP 238 [1]; [9]
  Disc diffusion diameter: 8 mm
HP 238 [1]; HP 238, CDC agar, 100 mg/ml
  Disc diffusion diameter: 8 mm
HP 43504 [3]; [13]
  anti-HP activity: no obvious anti-HP activity
HP 43504 [3]; [11]
  Disc diffusion diameter: 8 mm
HP 43504 [3]; HP 43504, CDC agar, 100 mg/ml
  Disc diffusion diameter: 8 mm

## CCC(N)C(=O)O (centres unmarked) [2-AB, 2-aminobutyric acid]
HP 238 [1]; [12]
  anti-HP activity: no obvious anti-HP activity
HP 238 [1]; [9]
  Disc diffusion diameter: 8 mm
HP 238 [1]; HP 238, CDC agar, 100 mg/ml
  Disc diffusion diameter: 8 mm
HP 43504 [3]; [13]
  anti-HP activity: no obvious anti-HP activity
HP 43504 [3]; [11]
  Disc diffusion diameter: 8 mm
HP 43504 [3]; HP 43504, CDC agar, 100 mg/ml
  Disc diffusion diameter: 8 mm

## CCC(C(=O)O)c1ccccc1 (centres unmarked) [2-PB, 2-phenylbutyrate]
HP 238 [1]; [8]
  Disc diffusion diameter: 24 mm
HP 238 [1]; HP 238, CDC agar, 50 mg/ml
  Disc diffusion diameter: 14 mm
HP 238 [1]
  anti-HP activity compared to other compounds: much better anti-HP activity
HP 43504 [3]; [10]
  Disc diffusion diameter: 18 mm
HP 43504 [3]; HP 43504, CDC agar, 50 mg/ml
  Disc diffusion diameter: 8 mm
HP 43504 [3]
  anti-HP activity compared to other compounds: much better anti-HP activity

## CCCC(=O)[O-].[Na+] [Butyrate, Sodium butyrate]
HP 238 [1]; HP 238, CDC agar, 50 mg/ml
  Disc diffusion diameter: 11 mm
HP 238 [1]; HP 238, compared with 4-PB or 2-PB
  disc diffusion capacity: much smaller than 4-PB or 2-PB
HP 43504 [3]; HP 43504, CDC agar, 50 mg/ml
  Disc diffusion diameter: 8 mm
HP 43504 [3]; HP 43504, compared with 4-PB or 2-PB
  disc diffusion capacity: much smaller than 4-PB or 2-PB

## NCCCC(=O)O [GABA, gama-aminobutyric acid]
HP 238 [1]; [12]
  anti-HP activity: no obvious anti-HP activity
HP 238 [1]; [9]
  Disc diffusion diameter: 8 mm
HP 238 [1]; HP 238, CDC agar, 100 mg/ml
  Disc diffusion diameter: 8 mm
HP 43504 [3]; [13]
  anti-HP activity: no obvious anti-HP activity
HP 43504 [3]; [11]
  Disc diffusion diameter: 8 mm
HP 43504 [3]; HP 43504, CDC agar, 100 mg/ml
  Disc diffusion diameter: 8 mm

## CCCC(CCC)C(=O)[O-].[Na+] [Valproate, sodium valproate]
HP 238 [1]; HP 238, 2 mg/ml to 16 mg/ml
  anti-HP activity: no obvious anti-HP activity
HP 238 [1]; HP 238, CDC agar, 2 mg/ml
  Disc diffusion diameter: 8 mm
HP 238 [1]; HP 238, CDC agar, 4 mg/ml
  Disc diffusion diameter: 8 mm
HP 238 [1]; HP 238, CDC agar, 8 mg/ml
  Disc diffusion diameter: 8 mm
HP 238 [1]; HP 238, CDC agar, 16 mg/ml
  Disc diffusion diameter: 8 mm
HP 43504 [3]; HP 43504, 2 mg/ml to 16 mg/ml
  anti-HP activity: no obvious anti-HP activity
HP 43504 [3]; HP 43504, CDC agar, 2 mg/ml
  Disc diffusion diameter: 8 mm
HP 43504 [3]; HP 43504, CDC agar, 4 mg/ml
  Disc diffusion diameter: 8 mm
HP 43504 [3]; HP 43504, CDC agar, 8 mg/ml
  Disc diffusion diameter: 8 mm
HP 43504 [3]; HP 43504, CDC agar, 16 mg/ml
  Disc diffusion diameter: 8 mm

## CC1(C)S[C@@H]2[C@H](NC(=O)[C@H](N)c3ccc(O)cc3)C(=O)N2[C@H]1C(=O)O [amoxicillin]
HP 238 [4]
  diameter of inhibition zone (clear zone size): 8 mm
[5]
  MIC: 0.12 µg/mL (≈ 0.328 µM)
HP 43504 [6]
  diameter of inhibition zone (clear zone size): 8 mm

## Cc1ncc([N+](=O)[O-])n1CCO [metronidazole]
HP 238 [4]
  diameter of inhibition zone (clear zone size): 16 mm
[5]
  MIC: 256 µg/mL (≈ 1500 µM)
HP 43504 [6]
  diameter of inhibition zone (clear zone size): 8 mm
HP 238 [7]
  MIC: 0.25 µg/mL (≈ 1.46 µM)

## CN(C)[C@@H]1C(O)=C(C(N)=O)C(=O)[C@@]2(O)C(O)=C3C(=O)c4c(O)cccc4[C@@](C)(O)[C@H]3C[C@@H]12 [tetracycline]
HP 238 [4]
  diameter of inhibition zone (clear zone size): 15 mm
[5]
  MIC: 1 µg/mL (≈ 2.25 µM)
HP 43504 [6]
  diameter of inhibition zone (clear zone size): 8 mm
